Organism: Rattus norvegicus
Test: Open TG-GATES - Regimen: Single
Format: toxicity, organism-based, Sprague-Dawley
Parameters: regimen Single, gender Male, age 6 weeks
Settings: in vivo, po, 2 mg/kg, route gavage, dose level Middle; for APTT / Bas / Eos / Fbg / Hb / Ht / Lym / MCH / MCHC / MCV / Mono / Neu / PT / Plat / RBC / Ret / WBC: tissue Blood; for KIDNEY_L / KIDNEY_R / KIDNEY_TOTAL: tissue Kidney; for LIVER: tissue Liver; for A/G / ALP / ALT / AST / BUN / CRE / Ca / Cl / DBIL / GLC / IP / K / LDH / Na / PL / RALB / TBIL / TC / TG / TP / gamma-GTP: tissue Plasma

O=NN(CCCl)C(=O)NC1CCCCC1 [LOMUSTINE]
TERMINAL_BW (3 h): 208.7 g
APTT (3 h): 16.4 s
Bas (3 h): 0%
Eos (3 h): 0.4%
Fbg (3 h): 227.8 mg/dL
Hb (3 h): 12.8 g/dL
Ht (3 h): 38.3%
Lym (3 h): 81.8%
MCH (3 h): 22.5 pg
MCHC (3 h): 33.4%
MCV (3 h): 67.4 fL
Mono (3 h): 7.2%
Neu (3 h): 10.2%
PT (3 h): 11.6 s
Plat (3 h): 102.8 x10_4/uL
RBC (3 h): 568.2 x10_4/ul
Ret (3 h): 9.5%
WBC (3 h): 127.7 x10_2/uL
KIDNEY_L (3 h): 0.9 g
KIDNEY_R (3 h): 1 g
KIDNEY_TOTAL (3 h): 1.9 g
LIVER (3 h): 10 g
A/G (3 h): 1.8
ALP (3 h): 890.2 IU/L
ALT (3 h): 35.6 IU/L
AST (3 h): 70.8 IU/L
BUN (3 h): 14.2 mg/dL
CRE (3 h): 0.5 mg/dL
Ca (3 h): 11.4 mg/dL
Cl (3 h): 104.8 meq/L
DBIL (3 h): 0.052 mg/dL
GLC (3 h): 187.6 mg/dL
IP (3 h): 9.9 mg/dL
K (3 h): 4.6 meq/L
LDH (3 h): 104.6 IU/L
Na (3 h): 139.4 meq/L
PL (3 h): 127.4 mg/dL
RALB (3 h): 3.5 g/dL
TBIL (3 h): 0.3 mg/dL
TC (3 h): 75.8 mg/dL
TG (3 h): 41.4 mg/dL
TP (3 h): 5.5 g/dL
gamma-GTP (3 h): 1.4 IU/L
TERMINAL_BW (6 h): 201.7 g
APTT (6 h): 16.8 s
Bas (6 h): 0%
Eos (6 h): 0.2%
Fbg (6 h): 217.4 mg/dL
Hb (6 h): 13.5 g/dL
Ht (6 h): 40.4%
Lym (6 h): 84.2%
MCH (6 h): 21.9 pg
MCHC (6 h): 33.4%
MCV (6 h): 65.6 fL
Mono (6 h): 4.2%
Neu (6 h): 11.4%
PT (6 h): 12.2 s
Plat (6 h): 103.8 x10_4/uL
RBC (6 h): 616.2 x10_4/ul
Ret (6 h): 9.4%
WBC (6 h): 137.8 x10_2/uL
KIDNEY_L (6 h): 1 g
KIDNEY_R (6 h): 1 g
KIDNEY_TOTAL (6 h): 1.9 g
LIVER (6 h): 8.7 g
A/G (6 h): 1.9
ALP (6 h): 941.6 IU/L
ALT (6 h): 33.6 IU/L
AST (6 h): 66.8 IU/L
BUN (6 h): 11.6 mg/dL
CRE (6 h): 0.5 mg/dL
Ca (6 h): 11 mg/dL
Cl (6 h): 104.2 meq/L
DBIL (6 h): 0.02 mg/dL
GLC (6 h): 187.6 mg/dL
IP (6 h): 10.8 mg/dL
K (6 h): 5 meq/L
LDH (6 h): 80.8 IU/L
Na (6 h): 141.2 meq/L
PL (6 h): 140 mg/dL
RALB (6 h): 3.5 g/dL
TBIL (6 h): 0.3 mg/dL
TC (6 h): 79.6 mg/dL
TG (6 h): 49.2 mg/dL
TP (6 h): 5.5 g/dL
gamma-GTP (6 h): 1.8 IU/L
TERMINAL_BW (9 h): 198 g
APTT (9 h): 17 s
Bas (9 h): 0%
Eos (9 h): 0.8%
Fbg (9 h): 226 mg/dL
Hb (9 h): 13.1 g/dL
Ht (9 h): 40.1%
Lym (9 h): 78.6%
MCH (9 h): 21.4 pg
MCHC (9 h): 32.7%
MCV (9 h): 65.6 fL
Mono (9 h): 6.2%
Neu (9 h): 14.6%
PT (9 h): 12.2 s
Plat (9 h): 103.3 x10_4/uL
RBC (9 h): 611.2 x10_4/ul
Ret (9 h): 8.8%
WBC (9 h): 71.6 x10_2/uL
KIDNEY_L (9 h): 0.9 g
KIDNEY_R (9 h): 0.9 g
KIDNEY_TOTAL (9 h): 1.8 g
LIVER (9 h): 8.4 g
A/G (9 h): 2.3
ALP (9 h): 731 IU/L
ALT (9 h): 28.6 IU/L
AST (9 h): 67.6 IU/L
BUN (9 h): 11 mg/dL
CRE (9 h): 0.5 mg/dL
Ca (9 h): 10.7 mg/dL
Cl (9 h): 105.4 meq/L
DBIL (9 h): 0.024 mg/dL
GLC (9 h): 191 mg/dL
IP (9 h): 10.8 mg/dL
K (9 h): 5 meq/L
LDH (9 h): 93.8 IU/L
Na (9 h): 139.4 meq/L
PL (9 h): 136.2 mg/dL
RALB (9 h): 3.9 g/dL
TBIL (9 h): 0.3 mg/dL
TC (9 h): 81.6 mg/dL
TG (9 h): 30.8 mg/dL
TP (9 h): 5.5 g/dL
gamma-GTP (9 h): 1.8 IU/L
TERMINAL_BW (24 h): 218.8 g
APTT (24 h): 16.9 s
Bas (24 h): 0%
Eos (24 h): 0.4%
Fbg (24 h): 207.4 mg/dL
Hb (24 h): 12.8 g/dL
Ht (24 h): 38.5%
Lym (24 h): 80.2%
MCH (24 h): 22.3 pg
MCHC (24 h): 33.3%
MCV (24 h): 67.1 fL
Mono (24 h): 7%
Neu (24 h): 12.6%
PT (24 h): 12.1 s
Plat (24 h): 96.4 x10_4/uL
RBC (24 h): 574.2 x10_4/ul
Ret (24 h): 9.1%
WBC (24 h): 121.6 x10_2/uL
KIDNEY_L (24 h): 1 g
KIDNEY_R (24 h): 1 g
KIDNEY_TOTAL (24 h): 2 g
LIVER (24 h): 11.1 g
A/G (24 h): 2.3
ALP (24 h): 839.8 IU/L
ALT (24 h): 38.8 IU/L
AST (24 h): 62.4 IU/L
BUN (24 h): 16.8 mg/dL
CRE (24 h): 0.5 mg/dL
Ca (24 h): 11.3 mg/dL
Cl (24 h): 104.4 meq/L
DBIL (24 h): 0.038 mg/dL
GLC (24 h): 195.8 mg/dL
IP (24 h): 8.7 mg/dL
K (24 h): 4.8 meq/L
LDH (24 h): 87.4 IU/L
Na (24 h): 137.8 meq/L
PL (24 h): 157.2 mg/dL
RALB (24 h): 4 g/dL
TBIL (24 h): 0.3 mg/dL
TC (24 h): 86.8 mg/dL
TG (24 h): 80.6 mg/dL
TP (24 h): 5.7 g/dL
gamma-GTP (24 h): 1.4 IU/L

From ChEMBL document CHEMBL3885861, “Open TG-GATES”
